{
  "source": "patent US9504676B2",
  "about": "“Molecules inhibiting a metabolic pathway involving the Syk protein tyrosine kinase and method for identifying said molecules” (CENTRE NATIONAL DE LA RECHERCHE SCIENTIFIQUE, priority 2008, dated 2016)",
  "format_in_all_cases": "cell-based",
  "key": {"Syk": {"biological_target": "T1, Syk (Rattus norvegicus, UniProt Q64725)", "T1 construct": "endogenous in cells; host or cells: RBL-2H3", "T1 sequence (Q64725 whole entry)": "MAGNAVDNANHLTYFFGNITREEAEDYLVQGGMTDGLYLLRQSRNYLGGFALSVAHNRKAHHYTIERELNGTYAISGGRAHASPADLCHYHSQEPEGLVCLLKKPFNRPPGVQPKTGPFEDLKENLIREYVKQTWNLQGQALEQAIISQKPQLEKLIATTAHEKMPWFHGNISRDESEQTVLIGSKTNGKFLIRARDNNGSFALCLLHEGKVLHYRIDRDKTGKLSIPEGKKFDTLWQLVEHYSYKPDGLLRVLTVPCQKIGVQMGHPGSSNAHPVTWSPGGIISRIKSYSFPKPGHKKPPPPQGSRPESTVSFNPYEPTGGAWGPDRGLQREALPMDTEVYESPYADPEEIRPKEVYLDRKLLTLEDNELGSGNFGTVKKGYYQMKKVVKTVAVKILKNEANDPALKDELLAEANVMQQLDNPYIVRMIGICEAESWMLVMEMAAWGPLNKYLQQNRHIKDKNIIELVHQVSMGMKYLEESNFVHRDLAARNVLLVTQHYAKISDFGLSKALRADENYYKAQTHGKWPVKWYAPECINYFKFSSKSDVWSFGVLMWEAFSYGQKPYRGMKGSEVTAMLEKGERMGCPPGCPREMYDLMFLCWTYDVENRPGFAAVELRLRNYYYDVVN", "assay": "Phosphorylation and FcεRI-induced kinase activity of Syk in RBL-2H3 cells"}, "Akt": {"test_system": "Akt", "assay": "Phosphorylation of Akt (PI3K activity marker, Fyn-dependent cascade)", "conditions": "RBL-2H3 cells and BMMCs", "method": "In mast cells, the signalling cascade Fyn/Gab2/PI3K gives rise to the activation of PI3K and the generation of PI-3,4,5-P3 recruiting a number of proteins containing a pleckstrin homology domain (PH), including Btk and PLC-γ on the plasma membrane^19.\n(§1) • 1) Chemical products and antibodies. A chemical bank of 3000 molecules (a varied subset) was acquired from ChemBridge, Inc. (San Diego, Calif.). Stocks of solutions of small molecules were prepared at a rate of 10 mM in DMSO (dimethylsulphoxide), except for C-13 (methyl 2-{5-[(3-benzyl-4-oxo-2-thioxo-1,3-thiazolidin-5-ylidene)methyl]-2-furyl}benzoate, ChemBridge ID No. 6197026) prepared in DMF (dimethylformamide). Unless specified otherwise, all the reagents were supplied by Sigma. […] The binding of G4G11 with Syk was assessed by adding the 9E10 monoclonal antibody conjugated with HRP detecting the amino acid sequence EQKLISEEDLN of human c-myc protein located at the C-terminal end of the scFv fragment. To generate Syk mutants, targeted mutagenesis was used on GST:Syk 6-242 protein and the binding of G4G11 with the mutants was assessed in the presence of 5 μM of C-13. • 3) Cells, culture conditions and functional tests. […] The level of β-hexosaminidase released was measured 10 min later and the TNF-α titration was performed by means of a cytotoxicity test on L929 cells as described previously^10, 3 hours after stimulation. […]"}, "p38 and JNK": {"test_system": "p38 and JNK", "assay": "MAP kinase activation: p38 and JNK phosphorylation levels", "conditions": "high C-13 concentration", "method": "The association of SLP-76 with Vav and/or Nck plays a role in optimal MAP kinase activation in mast cells^27.\nas §1, with “Sigma. Dinitrophenyl (DNP) hapten was acquired from Calbiochem. Sepharose GammaBind G and all the secondary antibodies were supplied by GE Health Amersham Biosciences.” for “Sigma.”"}},
  "data": [
    {"compound": "COC(=O)c1ccccc1-c1ccc(/C=C2/SC(=S)N(Cc3ccccc3)C2=O)o1", "note": "[Molecule C-13, methyl 2-{5-[(3-benzyl-4-oxo-2-thioxo-1,3-thiazolidin-5-ylidene)methyl]-2-furyl}benzoate]", "values": [
      {"measurement": "phosphorylation and FcεRI-induced kinase activity of Syk", "setting": "Syk", "value": "did not affect"},
      {"measurement": "Fyn-dependent cascade (phosphorylation of Akt)", "setting": "Akt", "value": "did not affect"},
      {"measurement": "phosphorylation levels of p38 and JNK", "setting": "p38 and JNK", "value": "remain normal"}
    ]}
  ]
}
